Key:
Settings in all cases: FP, probe AbuRPFK-5FAM, 60 min at 25° C.
[1] = biological target: T1, cIAP1-BIR3 (Homo sapiens, UniProt Q13490); assay: cIAP1-BIR3 fluorescence polarization binding assay
T1 construct: cIAP1-BIR3; Reaction Biology; APT-11-370; purchased Reaction Biology APT-11-370
Source text: (§1) IAPs are one main cause of cancer development and may result from overexpression of anti-apoptotic proteins. This protocol establishes three binding assays for XIAP Bir3 domain, cIAP1 and cIAP2 using FP (Fluorescence polarization) technology. The fluorescence probe used is a synthetic peptide conjugated to 5-carboxyfluorescein (AbuRPFK-5FAM). The fluorescence polarization value (mP) was detected by Envision, which was used to reflect the binding degree of protein and fluorescent marker. Reagents and equipment used in the assay are listed below, followed by the protocol.
(§2) • a) Prepare 100 times of the final cpd concentration in appropriate tube and transfer 5 uL compound (“cpd”) to 45 μL 1× reaction buffer with 10% DMSO. • b) The final reference cpd concentration is 10000, 3333.3, 1111.1, 370.4, 123.4, 41.2, 13.7, 4.57, 1.52, 0.51, 0.17 and 0 nM. So the 100 times of the concentration is 1000, 333.3, 111.1, 37.04, 12.34, 4.12, […], 0.15, 0.05, 0.017 and 0 μM. The final test cpds concentration is 3333.3, 1111.1, 370.4, 123.4, 41.2, 13.7, 4.57, 1.52, 0.51, 0.17, 0.057 and 0 nM. So the 100 times of the concentration is 333.3, 111.1, 37.04, 12.34, 4.12, […], 0.15, 0.05, 0.017, 0.0057 and 0 μM • c) Add 8 μL/well each dose enzyme to 384 well microplate (ProxiPlate-384 F Plus, 6008260) using multichannel pipette, prepared in step 2.1.1.2 • d) Centrifuge at 1000 rpm. • e) Add 2 μL/well cpd to 384 well microplate (ProxiPlate-384 F Plus, 6008260) using multichannel pipette, prepared in step a). • f) Centrifuge at 1000 rpm. RT, 15 min. • g) Start the assay by adding 10 uL/well substrate (prepared in step 2.1.1.3) to the same 384 well microplate using multichannel pipette • h) Centrifuge at 1000 rpm. • i) Cover the assay plate and incubate for 60 min at 25° C. • j) Read on Envision 2104 for mP and plot the IC50s with mP values. • k) Data analysis: IC50s were determined based on a non-linear regression analysis of data collected.

[2] = biological target: T2, XIAP-BIR3 (Homo sapiens, UniProt P98170); assay: XIAP-BIR3 fluorescence polarization binding assay
T2 construct: purchased Reaction Biology APT-11-374
T2 sequence (P98170 241-356 limits assumed): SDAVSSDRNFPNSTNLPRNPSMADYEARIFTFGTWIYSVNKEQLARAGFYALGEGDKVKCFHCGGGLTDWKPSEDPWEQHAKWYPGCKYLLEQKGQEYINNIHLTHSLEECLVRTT
Source text: as §1, §2

[3] = biological target: T3, cIAP2-BIR3 (Homo sapiens, UniProt Q13489); assay: cIAP2-BIR3 fluorescence polarization binding assay
T3 construct: cIAP2-BIR3; Reaction Biology; APT-11-372; purchased Reaction Biology APT-11-372
T3 sequence (Q13489 238-349 limits assumed): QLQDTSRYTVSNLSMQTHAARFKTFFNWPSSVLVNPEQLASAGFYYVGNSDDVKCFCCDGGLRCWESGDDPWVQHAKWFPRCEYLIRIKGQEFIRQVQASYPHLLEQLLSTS
Source text: as §1, §2

T1 sequence (Q13490 253-363 limits assumed): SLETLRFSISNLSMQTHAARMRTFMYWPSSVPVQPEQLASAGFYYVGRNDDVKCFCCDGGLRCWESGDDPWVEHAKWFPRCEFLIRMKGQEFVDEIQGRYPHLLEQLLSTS

In the case of `CN[C@@H](C)C(=O)N[C@H](C(=O)N1C[C@@H](OCCC(=O)N2CCN(C(=O)CCO[C@H]3C[C@@H](C(=O)N[C@@H]4CCCc5ccccc54)N(C(=O)[C@@H](NC(=O)[C@H](C)NC)C4CCCCC4)C3)CC2)C[C@H]1C(=O)N[C@@H]1CCCc2ccccc21)C1CCCCC1` [Compound IV, (2S,4S)-1-[(2S)-2-Cyclohexyl-2-[(2S)-2-(methylamino)propanamido]acetyl]-4-{3-[4-(3-{[(3S,5S)-1-[(2S)-2-cyclohexyl-2-[(2S)-2-(methylamino)propanamido]acetyl]-5-{[(1R)-1,2,3,4-tetrahydronaphthalen-1-yl]carbamoyl}pyrrolidin-3-yl]oxy}propanoyl)piperazin-1-yl]-3-oxopropoxy}-N-[(1R)-1,2,3,4-tetrahydronaphthalen-1-yl]pyrrolidine-2-carboxamide], the IC50 [1] is reported as 0.1 to 10 nM, the IC50 [2] is reported as 10 to 100 nM and the IC50 [3] is reported as 10 to 100 nM.
